Test results published in publication PMC4658133, “Intrinsic Levanase Activity of Bacillus subtilis 168 Levansucrase (SacB)” (PLoS ONE, 2015).

Molecular target: T1, levansucrase (SacB) (Bacillus subtilis, UniProt P05655)
T1 construct: expressed in Escherichia coli BL21, ion exchange purified
T1 sequence (P05655 30-473): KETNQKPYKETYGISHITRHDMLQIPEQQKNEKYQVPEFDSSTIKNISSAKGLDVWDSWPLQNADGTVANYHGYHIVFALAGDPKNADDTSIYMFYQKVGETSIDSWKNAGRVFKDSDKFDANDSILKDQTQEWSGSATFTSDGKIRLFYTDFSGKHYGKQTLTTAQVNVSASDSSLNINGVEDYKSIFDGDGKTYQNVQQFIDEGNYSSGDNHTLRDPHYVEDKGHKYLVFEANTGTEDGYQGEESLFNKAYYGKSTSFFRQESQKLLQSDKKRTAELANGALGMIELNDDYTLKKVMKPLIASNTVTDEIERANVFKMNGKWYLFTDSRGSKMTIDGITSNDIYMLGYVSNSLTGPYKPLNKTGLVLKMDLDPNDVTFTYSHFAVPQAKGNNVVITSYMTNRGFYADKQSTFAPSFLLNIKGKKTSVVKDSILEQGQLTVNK
Assay: HPAEC-PAD product profile after […] h
Format: biochemical
Conditions: fructosyl acceptor, 127 mM; donor 2.5 mM LMw levan; 50 mM sodium acetate, 1 mM CaCl2, pH 6.0

OC[C@H]1OC(O)[C@H](O)[C@@H](O)[C@@H]1O (stereo partly shown) [glucose]
HPAEC-PAD product profile after 5 h: These profile results from the fructosyl transfer from levan to glucose
